molecular target: T1, Human recombinant purified glucocorticoid receptor (Homo sapiens, UniProt P04150); experiment: Glucocorticoid receptor competitive binding assay (3H-dexamethasone); conditions: competition with 2 nM 3H-dexamethasone; GR at 1 nM; 4° C. overnight; read-out: Binding Affinity Ki
T1 sequence (P04150 1-777): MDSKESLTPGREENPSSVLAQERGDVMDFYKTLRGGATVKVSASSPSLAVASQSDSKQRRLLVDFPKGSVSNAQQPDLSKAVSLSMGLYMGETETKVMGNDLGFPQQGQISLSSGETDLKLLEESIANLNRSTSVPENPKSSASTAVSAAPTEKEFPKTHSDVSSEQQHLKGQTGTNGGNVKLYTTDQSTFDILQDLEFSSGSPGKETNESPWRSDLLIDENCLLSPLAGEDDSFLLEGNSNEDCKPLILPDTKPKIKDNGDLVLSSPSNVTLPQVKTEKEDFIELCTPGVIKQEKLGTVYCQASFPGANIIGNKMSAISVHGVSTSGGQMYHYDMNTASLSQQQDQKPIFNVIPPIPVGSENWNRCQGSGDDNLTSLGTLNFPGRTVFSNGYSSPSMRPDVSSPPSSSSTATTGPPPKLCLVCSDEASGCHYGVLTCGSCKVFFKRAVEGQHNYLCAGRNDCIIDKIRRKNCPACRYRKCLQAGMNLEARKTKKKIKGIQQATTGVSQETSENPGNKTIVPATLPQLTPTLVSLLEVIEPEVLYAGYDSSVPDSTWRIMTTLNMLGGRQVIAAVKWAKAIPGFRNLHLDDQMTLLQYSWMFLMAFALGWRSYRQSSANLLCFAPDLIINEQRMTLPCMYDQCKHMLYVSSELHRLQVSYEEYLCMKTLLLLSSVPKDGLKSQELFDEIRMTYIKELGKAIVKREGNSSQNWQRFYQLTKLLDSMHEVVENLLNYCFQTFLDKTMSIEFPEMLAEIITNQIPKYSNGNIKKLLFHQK
Description: The affinity of glucocorticoid receptor antagonists for the glucocorticoid receptor was determined in competitive binding assays by the ability of the antagonist to compete with tritiated dexamethasone. All assay steps were performed on ice in 96-well plates. Binding buffer contained 10 mM potassium phosphate pH 7.4, 20 mM Na2Mo4, 100 μM EDTA, 2% DMSO, and 5 mM DTT. Human recombinant purified glucocorticoid receptor was used at 1 nM. Compounds tested had up to 2% DMSO final concentration. Non-specific binding condition was 1 μM dexamethasone. The radioligand used for the competition assay was 2 nM ^3H-dexamethasone (83 Ci/mmol stock solution). Buffer, compounds or vehicles, GR, and radioligand were incubated at 4° C. overnight. Unifilter GF/B 96-well filter plates were treated with 0.5% PEI after incubation. Samples were transferred to filter plates by a cell harvester.
Filter plates were washed five times with 50 mM Tris pH 7.5 and 5 mM EDTA wash buffer. Samples were dried at 65° C. for about 1 hr. Scintillation fluid was added to filter plates at 50 μL/well and ^3H cpm were measured on a TopCount scintillation counter.

| Ki | Compound |
| --- | --- |
| 555 nM | CCOC(=O)C(O)c1ccc(NC(=O)C(O)(CC2(c3ccccc3C(F)(F)F)CCC2)C(F)(F)F)cc1 (stereo not shown) [Example 4, Hydroxy-(4-{3,3,3-trifluoro-2-hydroxy-2-[1-(2-trifluoromethyl-phenyl)-cyclobutylmethyl]-propionylamino}-phenyl)-acetic acid ethyl ester] |
| 13.5 nM | O=C(Nc1cccc(-c2cnco2)c1)C(O)(CC1(c2ccccc2C(F)(F)F)CCC1)C(F)(F)F (stereo not shown) [Example 2, 3,3,3-Trifluoro-2-hydroxy-N-(3-oxazol-5-yl-phenyl)-2-[1-(2-trifluoromethyl-phenyl)-cyclobutylmethyl]-propionamide] |
| 161 nM | O=C(Nc1ccc(-c2ncco2)cc1)C(O)(CC1(c2ccccc2C(F)(F)F)CCC1)C(F)(F)F (stereo not shown) [Example 1, 3,3,3-Trifluoro-2-hydroxy-N-(4-oxazol-2-yl-phenyl)-2-[1-(2-trifluoromethyl-phenyl)-cyclobutylmethyl]-propionamide] |
| 25.2 nM | Cc1noc(-c2ccc(NC(=O)C(O)(CC3(c4ccccc4C(F)(F)F)CCC3)C(F)(F)F)cc2)n1 (stereo not shown) [Example 3, 3,3,3-Trifluoro-2-hydroxy-N-[4-(3-methyl-[1,2,4]oxadiazol-5-yl-)-phenyl]-2-[1-(2-trifluoromethyl-phenyl)-cyclobutylmethyl]-propionamide] |

Reference: patent US7868031B2, “Propionamide compounds as antiinflammatory agents” (Roche Palo Alto LLC, priority 2005, dated 2011)
